According to US10590422B2, “Anticancer therapeutic intervention” (PHYZAT BIOPHARMACEUTICALS, LDA., priority 2017, dated 2020):

Assays:
[1] = target: T1, ASCT2 (Homo sapiens, UniProt Q15758); experiment: Sodium-dependent [^14C]-L-alanine uptake in carcinoma cells, sensitivity to unlabelled L-alanine; assay type: cell-based; conditions: epithelial carcinoma cells; 3 mM unlabelled L-alanine; FIGS. 3E-3H
T1 construct: recognized the presence of LAT1 and ASCT2 in all cancer cell lines; endogenous in cells
T1 sequence (Q15758 1-541): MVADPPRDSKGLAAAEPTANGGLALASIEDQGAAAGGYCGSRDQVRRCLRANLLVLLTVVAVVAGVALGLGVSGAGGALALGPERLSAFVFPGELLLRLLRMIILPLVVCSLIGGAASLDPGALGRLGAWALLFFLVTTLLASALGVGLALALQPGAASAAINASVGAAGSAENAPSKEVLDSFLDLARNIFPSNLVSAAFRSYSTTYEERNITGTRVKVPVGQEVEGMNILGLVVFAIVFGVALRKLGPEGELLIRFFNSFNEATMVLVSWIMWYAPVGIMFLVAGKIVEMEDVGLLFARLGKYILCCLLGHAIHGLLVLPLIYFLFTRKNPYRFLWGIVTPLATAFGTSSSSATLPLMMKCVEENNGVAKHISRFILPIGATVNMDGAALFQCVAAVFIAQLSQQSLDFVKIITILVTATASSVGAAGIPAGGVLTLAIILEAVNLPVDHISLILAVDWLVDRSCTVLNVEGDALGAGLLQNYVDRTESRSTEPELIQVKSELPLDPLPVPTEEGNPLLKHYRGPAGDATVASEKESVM
Protocol: (§1) Cells were plated in 24-well plates (Sarstedt, Germany) and grown until confluence was reached. On the day of the experiment, Cell culture medium was aspirated and cells were preincubated for 15 min in Hanks' medium (ChCl 140 mM, KCl 5 mM, MgSO4.7H2O 0.8 mM, K2HPO4 0.33 mM, KH2PO4 0.44 mM, MgCl2.6H2O 1 mM, CaCl2) 0.025 mM, Tris-HCl 9.75 mM, pH 7.4). Uptake was initiated by the addition of Hanks' medium with 0.25 μM [^14C]-L-alanine in the absence and in the presence of 3 mM unlabeled L-alanin. During preincubation and incubation cells were continuously shaken and maintained at 37° C. Uptake was terminated after 1 min by rapid removal of uptake solution by means of a vacuum pump connected to a Pasteur pipette, followed by a rapid wash with Hanks' medium. Subsequently, cells were solubilized in 0.1% vol/vol Triton X-100 (dissolved in 5 mM Tris-HCl, pH 7.4), and radioactivity was measured by liquid scintillation counting.

[2] = target: T2, LAT1 (Homo sapiens, UniProt Q01650); experiment: Sodium-independent [^14C]-L-leucine uptake in carcinoma cells, sensitivity to unlabelled L-leucine; assay type: cell-based; conditions: epithelial carcinoma cells; 3 mM unlabelled L-leucine; FIGS. 3A-3D
T2 construct: recognized the presence of LAT1 and ASCT2 in all cancer cell lines; endogenous in cells
Protocol: as §1, with “experiment, cell” for “experiment, Cell”, “medium (NaCl” for “medium (ChCl”, “by” for “by the”, “μM [^14C]-L-leucine” for “μM [^14C]-L-alanine”, “unlabeled L-leucine.” for “unlabeled L-alanin.”

T2 sequence (Q01650 whole entry): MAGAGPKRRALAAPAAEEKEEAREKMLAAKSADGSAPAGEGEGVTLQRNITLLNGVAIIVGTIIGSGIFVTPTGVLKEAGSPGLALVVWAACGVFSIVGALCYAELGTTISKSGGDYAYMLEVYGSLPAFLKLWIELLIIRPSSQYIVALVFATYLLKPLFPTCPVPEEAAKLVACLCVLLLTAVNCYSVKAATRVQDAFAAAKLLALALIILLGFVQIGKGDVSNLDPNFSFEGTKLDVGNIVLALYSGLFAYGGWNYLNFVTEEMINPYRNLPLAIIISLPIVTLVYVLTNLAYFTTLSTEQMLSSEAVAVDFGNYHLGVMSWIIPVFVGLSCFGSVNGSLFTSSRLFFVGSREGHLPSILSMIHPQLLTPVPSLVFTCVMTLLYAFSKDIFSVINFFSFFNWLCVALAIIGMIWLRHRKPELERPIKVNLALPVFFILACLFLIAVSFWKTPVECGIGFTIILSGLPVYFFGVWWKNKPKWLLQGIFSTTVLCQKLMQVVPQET
T2 sequence (P08195 102-630 partner): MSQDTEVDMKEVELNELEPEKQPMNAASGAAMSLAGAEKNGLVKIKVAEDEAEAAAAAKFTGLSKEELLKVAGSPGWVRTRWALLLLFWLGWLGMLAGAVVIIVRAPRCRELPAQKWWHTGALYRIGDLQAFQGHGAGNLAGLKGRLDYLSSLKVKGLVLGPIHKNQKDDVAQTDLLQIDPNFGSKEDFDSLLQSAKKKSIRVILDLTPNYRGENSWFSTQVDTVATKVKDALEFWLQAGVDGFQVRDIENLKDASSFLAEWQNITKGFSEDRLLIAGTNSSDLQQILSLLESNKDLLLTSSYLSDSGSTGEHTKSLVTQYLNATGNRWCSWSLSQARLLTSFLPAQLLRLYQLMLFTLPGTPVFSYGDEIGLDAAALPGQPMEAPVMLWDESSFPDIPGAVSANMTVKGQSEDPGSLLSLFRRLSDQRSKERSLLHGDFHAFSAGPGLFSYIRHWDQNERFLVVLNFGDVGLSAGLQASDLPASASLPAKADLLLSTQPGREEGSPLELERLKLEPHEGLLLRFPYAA

Row | Structure (SMILES) | Sodium-dependent [^14C]-L-alanine (0.25 μM) uptake at initial rate of uptake (1 min) [1] | Sodium-independent [^14C]-L-leucine (0.25 μM) uptake at initial rate of uptake (1 min) [2]
1 | C[C@H](N)C(=O)O [L-alanine] | significantly (P<0.01) reduced | –
2 | CC(C)C[C@H](N)C(=O)O [L-leucine] | – | significantly (P<0.001) reduced
